Entries after “also recorded” stand apart in the source; their conditions may differ. Like-named read-outs stand apart in the source and are kept apart here.
What was measured:
human tumor cells = assay type: cell-based; conditions: controls at equimolar or 5 to 10× greater concentrations
Protocol: The anti-tumor activities of MA were assessed in several in vitro and in vivo systems using published methods.^166 In vitro studies were with a wide variety of human tumor cell lines as well as short-term cultures of cells from biopsy samples obtained from tumors. The assays included effects of MA on colony formation, cell number and viability (trypan blue), and apoptosis. Four measures of microscopy were used. In vivo studies included the effects of MA on tumors induced in immunodeficient mice by xenotransplanted various human neoplastic cells, spontaneous neoplasms of immuno-competent mice and rats, and a few standard tumors in immuno-competent mice. Representative examples are presented.
Cells (5×10^5/ml) were seeded in modified Eagle's medium supplemented with 10% FCS, 10% conditioned medium form PHA stimulated human lymphocytes, 2 mM glutamine in 0.8% V/V methylcellulose with or without various treatments in a final volume of 1.0 ml. Then 0.1 ml aliquots were seeded in 96 well flat bottom microtest plates and incubated at 37° C. in 5% CO2 in air for 7 days. Aggregates containing 50 cells or more were scored as colonies.
5×10^5 cells were seeded in triplicate on 24 gelatin coated wells in conditions as described for Panel A and treated with the indicated test materials. After 3 days the cells were dislodged from their monolayers by gentle pipetting with cell dissociation buffer (Life Technologies), counted after trypan blue staining and aliquots examined for Annexin V staining by indirect IFA […].
Studies of the anti-tumor cell effects of MA were extended to other carcinomas, melanoma, some hematopoietic tumors, and carcinomas of the colon, prostate, breast, lung, brain, pancreas, and kidney-using cell lines from these tumors. […] Many more types of tumor cells were studied utilizing other assays (see below).

HIV-1 gene expression = experiment: HIV-1 transgenic mice, pups feeding from treated mothers; assay type: in vivo; conditions: mouse, in vivo
Description: The transgenic mice contain 5.1 kb of the HIV-1 proviral genome, lacking gag and pol genes and 2.3 kb of vector.^172 The newly developed transgenic rat contains the same HIV-1 sequences and vector.
Twenty-four hours after birth the mothers were either inoculated subcutaneously daily for 10 days or received an implanted osmotic pump delivering 30-150 pmoles of either native or synthetic MA or pMA. Various control polypeptides were used at equimolar or vast molar excess. The newborn pups were then allowed to feed from the foster mother breast milk over the entire period. Since the animals are at risk from needle inoculation, breastfeeding was the chosen route for MA administration.
In these experiments total RNA was extracted from samples of skin RNA206 10 days after birth of MA treated and untreated mice. One ug of RNA was reverse transcribed into cDNA using random hexamer primer and […] reverse transcriptase (Life Technologies, Inc.) in a final vol. Of 30 ul. Three ul of each reaction was used for PCR amplification of the HIV-1 gene sequences (env, tat, nef, and rev) as described […], and glyceraldehyde 3-phosphate dehydrogenase (GAPDH) was amplified from each sample for normalization. After 25 cycles, 10% of the products were resolved by electrophoresis on 2% agarose gels, transferred to nitrocellulose membranes by Southern blotting, and hybridized to fluorescein isthiocyanate-labeled oligonucleotide probes complementary to internal sequences of the amplicons […]. Bound probes were detected by chemiluminescence (Amersham) and relative mRNA levels determined by densitrometry after normalization with GAPDH mRNA levels.

HIV-1 = conditions: controls at similar, equimolar or higher concentrations
Protocol: Virus (MOI of 0.001) was added to 10^6 cells in RPMI-1640 with 10% FCS. One hour later the various polypeptides were added once. The cells cultured for 3 days with 5 ug PHA and 20 i.m. of II-2/ml at 37°, after which virus was estimated by determining p24 (HIV-1) or p27 (SIV) (Organon-Teknika).
The effect of native and synthetic MA on HIV-1 infection in vitro was evaluated using PHA and II-2 stimulated primary peripheral blood cells (PBMC), CD4+ T-cells enriched fractions from PBMC, and CD14+ macrophage enriched fractions. Infection was with HIV-1 IIIB (PBMC and CD4+ T-cells), HIV-1 Ba-L (macrophages), and two primary HIV-1 isolates not passaged in any cell line (PBMC).

[1] = tested on: human carcinoma and sarcoma cells (PC3, KS Y-1); experiment: Xenotransplanted human tumors in immunodeficient mice; assay type: in vivo; conditions: controls at equivalent and higher molar concentrations
Protocol: In the first set of experiments, MA was tested against tumors formed by xenotransplantation of various human carcinoma and sarcoma cells in immunodeficient mice. […] […] Three different synthetic forms of MA were used: full length (MAS3) and the previously described MAS1 and MAS2 (Panel C).

gliobastoma HTB16 = experiment: Confocal microscopy apoptosis; assay type: cell-based, human; conditions: 200 ng/ml; 24 hrs
Protocol: (§1) More extensive studies of the effects of MA and with truncated synthetic forms of MA (MAS) on a wide range of other human tumor cells were carried out using three-dimensional confocal microscopy. Cells were cultured and then seeded onto gelatinized glass chamber slides and incubated 24 hrs with the various test materials. The slides were then fixed with formalin and treated serially with Triton X-100 (0.01%) for 10 min at 25°, 0.4 ug/ml fluorescein isothiocyanate (FITC)-labeled Phalloidin (Sigma Chem. Co.) at room temperature for 30 min to bind actin, washed with PBS and the DNA stained with Propidium iodide (PI) (0.5 ug·ml) (Sigma Chemical Co.), for 15 min. The stained slides were washed and mounted on slow fade (Molecular Probes, Inc., Eugene, Oreg.) and examined through a dual emission filter XF53 (Omega, Inc., Brattlesboro, Va.) by fluorescent microscopy. In some experiments only DNA staining was performed. In these instances Triton X-100 was not used. The slides were stained with PI and examined for cell morphology and chromatin degradation under 3D confocal microscopy.

[2] = tested on: leukemia and lymphoma cell lines: HUT78, DAVDI, HG, SULTAN, T-cell lymphoma; experiment: Confocal microscopy apoptosis; assay type: cell-based, human; conditions: 200 ng/ml; 24 hrs
Protocol: as §1

melanoma HTB67 = experiment: Confocal microscopy apoptosis; assay type: cell-based, human; conditions: 200 ng/ml; 24 hrs
Protocol: as §1

Ewing's sarcoma = experiment: Confocal microscopy apoptosis; assay type: cell-based, human; conditions: 200 ng/ml; 24 hrs
Protocol: as §1

KS Y-1 cells = experiment: Confocal microscopy apoptosis; assay type: cell-based, human; conditions: 200 ng/ml; 24 hrs
Protocol: as §1

[3] = tested on: carcinoma of the lung HTB184; experiment: Confocal microscopy apoptosis; assay type: cell-based, human; conditions: 200 ng/ml; 24 hrs
Protocol: as §1

[4] = tested on: carcinoma of the breast HTB124; experiment: Confocal microscopy apoptosis; assay type: cell-based, human; conditions: 200 ng/ml; 24 hrs
Protocol: as §1

fibrosarcoma 4TB166 = experiment: Confocal microscopy apoptosis; assay type: cell-based, human; conditions: 200 ng/ml; 24 hrs
Protocol: as §1

[5] = tested on: carcinoma of the pancreas CRL 1682; experiment: Confocal microscopy apoptosis; assay type: cell-based, human; conditions: 200 ng/ml; 24 hrs
Protocol: as §1

[6] = tested on: carcinoma of the kidney HTB46; experiment: Confocal microscopy apoptosis; assay type: cell-based, human; conditions: 200 ng/ml; 24 hrs
Protocol: as §1

carcinoma of the colon = experiment: Confocal microscopy apoptosis; assay type: cell-based, human; conditions: 200 ng/ml; 24 hrs
Protocol: as §1

[7] = tested on: prostate carcinoma cell line PC3; experiment: Confocal microscopy apoptosis; assay type: cell-based, human; conditions: 200 ng/ml; 24 hrs
Protocol: as §1

[8] = tested on: prostate carcinoma cell line PC4; experiment: Confocal microscopy apoptosis; assay type: cell-based, human; conditions: 200 ng/ml; 24 hrs
Protocol: as §1

[9] = Summary of active and inactive peptides / overall biological activities
[10] = Lethally irradiated rats and mice; conditions: treated at time of radiation
Protocol: In order to determine in vivo relevance of the prohematopoietic effects of MA treated rats and mice under several conditions of bone marrow suppression. First, the effects of native MA and pMA and of the synthetic 15-mer MAS1 were treated for their capacity to reduce or prevent the effects of lethal doses of gamma irradiation. […] MA, pMA, MAS1, and various control polypeptides were given 48 and 24 hrs before, during, or 24 hrs after radiation. The animals treated prior to radiation received either 100 ng vs. 1 ug (rats) or 50 ng vs. 500 ng (mice) as 2 subcutaneous injections.
It is not yet possible to determine the precise molar dose of pMA because of less certainty on its full-length sequence.
To ascertain that the MA effect did promote hematopoiesis in these animals we examined the bone marrow for cellularity and colony formation and determined peripheral blood counts.

[11] = tested on: hematopoietic progenitors (CFU-GEMM, BFU-e, CFU-GM, T-CFC); experiment: Hematopoietic colony formation assays; assay type: cell-based, human
Description: Hematopoietic colony formation assays with bone marrow or cord blood of normal human volunteers and bone marrow of monkeys, rats, and mice were utilized. The assays are conventional measurements of the number of progenitors for erythrocytes, granulocytes, macrophages, platelets, and T-cells. The culture conditions included growth factors that would give near optimum growth for the particular lineage. These factors included II-3, PHA-lymphocyte conditioned medium, erythropoietin (EPO), II-6, and GM-CSF. The number of colonies developing in methylcellulose reflects the number of progenitor cells, and the percent increase is a measure of the effect of different polypeptides to increase colony number above the maximum obtained with the indicated known growth factors.
The latter is a less conventional assay, and details on the methods involved are described elsewhere.^178

[12] = Lethal dose taxol in Sprague-Dawley rats; assay type: in vivo; conditions: even at high doses
Protocol: Sprague-Dawley rats were given taxol in large lethal doses, 4.5 mg in one I.P. inoculation. […] Bone marrow suppression can also be a side effect of the clinical use of taxol.^179 As in the radiation experiments, either MA, pMA, MAS1, or various polypeptide controls were given subcutaneously only in two doses 24 and 48 hrs before taxol treatment or were given 3×/week for 4 weeks. […]

## β-hCG AA 21-52: control peptide 32 amino acids in length, AA 21-52 of β-hCG (EGCPVCITVNTTICAGYCPTMTRVLQGVLPAL; listed as Homo sapiens) [reference compound]
Human tumor cells
  inhibition of growth / induction of apoptosis of neoplastic cells: negative
HIV-1 gene expression
  HIV-1 viral expression in tissues: high expression
  mice dead by day 10: 10 of 10

## β-hCG 6-39: SEQ ID NO: 17 (RPRCRPINATLAVEKEGCPVCITVNTTICAGYCP; listed as Homo sapiens)
Human tumor cells
  inhibition of growth / induction of apoptosis of neoplastic cells: negative

## NYRDVRFESIRLPGCPRGVNPVVSYAVALS (listed as Homo sapiens) [MAS2]
HIV-1
  inhibition of HIV replication (qualitative): full-inhibition
[1]
  effect on xenotransplanted tumor (qualitative): hypocellularity and degenerative changes of the cells; also recorded: undergoing apoptosis
Gliobastoma HTB16
  induction of apoptosis: induced apoptosis
[2]
  induction of apoptosis: induced apoptosis
Melanoma HTB67
  induction of apoptosis: induced apoptosis
Ewing's sarcoma
  induction of apoptosis: induced apoptosis
KS Y-1 cells
  induction of apoptosis: induced apoptosis
[3]
  induction of apoptosis: induced apoptosis
[4]
  induction of apoptosis: induced apoptosis
Fibrosarcoma 4TB166
  induction of apoptosis: induced apoptosis
[5]
  induction of apoptosis: induced apoptosis
[6]
  induction of apoptosis: induced apoptosis
Carcinoma of the colon
  induction of apoptosis: induced apoptosis
[7]
  induction of apoptosis: induced apoptosis
[8]
  induction of apoptosis: induced apoptosis

## peptide 6-42: β-core AA 6-42 N-terminal polypeptide with PDGF related sequences (RPRCRPINATLAVEKEGCPVCITVNTTICAGYCPTMT; UniProt P0DN86 26-62, looked up, fragment) [reference compound]
[9]
  biological activities in vitro or in vivo in the experimental systems described: none of the activities

B1: β-core: purified hCG beta core, degradation product of the beta chain of hCG; full length native glycosylated AA 6-40 & 55-92 (protein)
chain 1: RPRCRPINATLAVEKEGCPVCITVNTTICAGYCPTMT
chain 2: VVCNYRDVRFESIRLPGCPRGVNPVVSYAVALSCQCAL
[9]; listed as native glycosylated β-core
  biological activities in vitro or in vivo in the experimental systems described: none of the biological activities
[9]; listed as purified native glycosylated core
  biological activities in vitro or in vivo in the experimental systems described: no activity
Human tumor cells
  inhibition of growth / induction of apoptosis of neoplastic cells: no inhibition of growth or induction of apoptosis
[1]
  effect on xenotransplanted tumor (qualitative): no effect
HIV-1 gene expression
  HIV-1 viral expression in tissues: high expression
  mice dead by day 10: 10 of 10
[10]
  time within which animals died: ≤ 5 days
[11]
  hematopoietic effects in vivo and in vitro: None
[11]; equimolar or higher concentrations
  effect on colony number (qualitative): no significant effect above background
[12]
  effect on survival (qualitative): no effect

Source: patent US9175077B2, “Nucleic acids encoding biologically active polypeptides derived from a novel early stage pregnancy factor designated maternin (MA)” (NOBEL BIOSCIENCES LLC, priority 1999, dated 2015)
